The test system of data set [1] is gut microbiome gene families. Kind of data set: Gene differential abundance analysis of stool metagenome (HUMAnN2, Uniref50/Uniref90, transposases). It is filed as in vivo, human. From the text:
The adaptors, human reads contamination, and low quality sequences were removed from the raw sequencing data using software kneaddata. Trimmomatic (Bolger et al., Bioinformatics 30, 2114 (2014)) was invoked by kneaddata for removing adaptor sequence, trimming low quality bases, and removing low quality reads. Bowtie (Langmead and Salzberg, Nat. Methods 9, 357 (2012)) was invoked by kneaddata for human reads detection. • Removing sequencing noise: For each sample, if the abundance of one species was smaller than 0.05% of the maximum abundance of all species in the sample, it was considered as noise, and the abundance of this species in the sample was set as 0. • Imputing missing value (i.e. Os): Because log 2 transformation was needed in further analysis, adjustment factor (e) was added to the abundance matrix, where e equals 50% of the minimum non-zero abundance value of all samples. • Removing low abundance species: A species was removed if the relative abundance was lower than 0.1% in >=95% of samples. 128 species was kept for further analysis.
HUMAnN2 (Abubucker et al., PLoS Comput. Biol. 8, e1002358 (2012)) was used to calculate gene and pathway abundance from metagenomic sequencing data. Uniref50 (UniProt® Consortium, Nucleic Acids Res. 43, D204 (2015)) was used for gene family definition. MetaCyc (Caspi et al., Nucleic Acids Res. 42, D459 (2014)) and KEGG (Kanehisa and Goto, Nucleic Acids Res. 28, 27 (2000); Kanehisa et al., Nucleic Acids Res. 44, D457 (2016)) were used for pathway analysis. • Gene family identification: Initially, 989251 gene families were identified from the dataset by HUMAnN2. Quantile normalization was implemented. For each sample, the RPK values were added up till 90% percentile of all genes (normalization factor, nf). RPK value of each gene in each sample was then divided by the nf of the sample, and multiplied with the mean of nf of all samples. 683270 uncharacterized genes were removed. Genes undetected in over 90% of samples (101994) were removed. 203987 genes were kept. Due to the large number of genes identified, 25% of the most varying genes were selected for further analysis. The most varying genes were defined by the coefficient variation (cv=sd/mean) of log 2 transformed value. • MetaCyc pathway identification: HUMAnN2 identified 567 MetaCyc pathways from the dataset. Quantile normalization was then performed. For each sample, the abundance values were added up till 90% percentile of all pathways (normalization factor, nf). Each pathway abundance in each sample was divided by the nf of the sample, and then multiplied with the mean of nf for all samples. The low abundance pathways (52), which were not detected on over 90% of all samples, were removed. 515 high quality MetaCyc pathways were kept for further analysis. • KEGG pathway identification: HUMAnN2 identified 160 KEGG pathways from the dataset. Quantile normalization was applied, and low abundance pathways were removed. 66 high quality KEGG pathways were kept for further analysis.
• Species differential abundance analysis: The time effect of OCA treatment was studied on three OCA dose groups separately using Friedman rank test. The dose effect of OCA treatment was studied on three time point separately, and Kruskal-Wallis test was used. • Gene differential abundance analysis: For each of the most varying genes, repeated-measure ANOVA was performed to study the time effect and OCA dose effect on gene abundance change. […]

Another data set concerns endogenous bile acids. Kind of data set: Luminal bile acid concentrations in small intestine and feces of OCA-treated mice. The format is in vivo. The protocol: FIG. 54: Bar graphs showing the concentration of taurocholic acid and taurodeoxycholic acid at proximal small bowel and distal small bowel, or in feces, in samples collected from mice treated with control (methylcellulose) or OCA (10 mg/kg/day) for 14 days, followed by no treatment for additional 14 days. Statistically significant differences based on two-tailed Student t-tests are noted: p<0.05 (*) and p<0.01 (**).
FIGS. 59A-59E: Effect of OCA administration on luminal bile acid concentrations in the murine small intestine and feces. […] Mean+SE, *p<0.05, **p<0.01, ***p<0.001. FIGS. 59D-59E show heatmaps of luminal bile acid concentrations in the proximal (FIG. 59D) and distal (FIG. 59E) small intestine.
For example, Streptococci represent as much as 20% of the human small intestinal microbiota by 16S tagged sequencing (Dlugosz et al., Sci Rep-Uk, 5 (2015)); El Aidy et al., Curr Opin Biotechnol., 32, 14-20 (2015)). Some of these bacteria are environmental organisms used in the manufacturing of food introduced into the small intestine with diet, including Streptococcus thermophilus, Bifidobacterium breve, Lactobacillus casei, and Lactococcus lactis (Brigidi et al., International Journal of Food Microbiology, 81, 203-209 (2003); Derrien and van Hylckama Vlieg, Trends Microbiol., 23, 354-366 (2015); Stiles and Holzapfel, International Journal of Food Microbiology, 36, 1-29 (1997)). To determine whether OCA treatment can alter the gut microbiota composition specifically in the small intestine, mice were treated with OCA for 14 days, the microbiota composition in the proximal and distal small intestine, as well as the stool, and quantified bile acids were characterized. Since OCA was prepared in methylcellulose, an additional methylcellulose control group was included due to its previously described effect on fecal bile acid levels (Cox et al., FASEB J 27, 692-702 (2013)).

Each structure is given as a SMILES string.

Take `CC[C@H]1[C@@H](O)[C@@H]2[C@H](CC[C@]3(C)[C@@H]([C@H](C)CCC(=O)O)CC[C@@H]23)[C@@]2(C)CC[C@@H](O)C[C@@H]12` [OCA, 3α,7α-dihydroxy-6α-ethyl-5β-cholan-24-oic acid]: the “number of genes with significant time-dependent effects in response to OCA treatment” value in data set [1] (Uniref90 high stringency genomic analysis, eight bacterial species) is listed as 782. In addition, the “representation of bacterial transposase genes” value in data set [1] (all three OCA doses) is “robust increase”. Besides, in data set [1] (in vivo), the “glycosyl transferase genes in the presence of OCA” value was “significantly increased”. Moreover, the “OCA dose effect on gene abundance” value in data set [1] (repeated measure ANOVA, FDR<0.05) was “No OCA dose effect or OCA dose×day interaction was observed”. Besides, the “number of genes differentially abundant over time” value in data set [1] (repeated measure ANOVA, FDR<0.05 for time effect) is 112. In the data set on endogenous bile acids (10 mg/kg OCA, 14 days), the “OCA in the small intestinal lumen of treated mice” value is “detectable”, the “contribution of OCA to the total concentration of bile acids in the small intestinal lumen” value is given as “contributed minimally” and the “luminal endogenous primary bile acids in the feces” value was “no effect”. The “luminal endogenous primary bile acids in proximal and distal small intestine” value in the data set on endogenous bile acids (10 mg/kg OCA, 14 days, greatest in proximal small intestine) was “significant reduction”. Moreover, the “luminal cholic and taurocholic acids” value with endogenous bile acids (10 mg/kg OCA, 14 days, small intestine) is on record as “largest consistent decreases”. Also, in the data set on endogenous bile acids (OCA 10 mg/kg/day, day 14), the “levels of taurocholic and taurodeoxycholic acids in proximal and distal small intestine” value is “reduction”; the “levels of taurocholic and taurodeoxycholic acids in the colon (feces)” value is reported as “not in the colon (feces)”. Further, the “levels of taurocholic and taurodeoxycholic acids in the proximal small intestine after cessation” value in the data set with endogenous bile acids (day 28, two weeks after cessation of OCA) is “continued reduction”.
